Reference: PubChem BioAssay (NCI)
Several values for one entry are separate records, joined by “and”; a condition that tells them apart may be missing. Identical values can stand only once.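 Assay format: 96-well plates, 48-hour exposure. GI50 = concentration required for 50% inhibition of growth. At the TGI there is no net growth.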

Key:
Test in all cases: inhibition of tumour cell growth, NCI panel, 48 h
SF-295 CNS = test system: SF-295 CNS
MALME-3M melanoma = test system: MALME-3M melanoma
HT29 colon = test system: HT29 colon
ACHN renal = test system: ACHN renal
PC-3 prostate = test system: PC-3 prostate
IGROV1 ovarian = test system: IGROV1 ovarian
HCC-2998 colon = test system: HCC-2998 colon
NCI-H522 lung = test system: NCI-H522 lung
SK-MEL-28 melanoma = test system: SK-MEL-28 melanoma
HL-60(TB) leukemia = test system: HL-60(TB) leukemia

Compound	GI50 (SF-295 CNS) [µM]	TGI (SF-295 CNS)	GI50 (MALME-3M melanoma) [µM]	TGI (MALME-3M melanoma)	GI50 (HT29 colon) [µM]	TGI (HT29 colon)	GI50 (ACHN renal) [µM]	TGI (ACHN renal)	GI50 (PC-3 prostate) [µM]	TGI (PC-3 prostate) [µM]	GI50 (IGROV1 ovarian)	TGI (IGROV1 ovarian)	GI50 (HCC-2998 colon) [µM]	TGI (HCC-2998 colon)	GI50 (NCI-H522 lung)	TGI (NCI-H522 lung) [µM]	GI50 (SK-MEL-28 melanoma) [µM]	TGI (SK-MEL-28 melanoma)	TGI (HL-60(TB) leukemia) [µM]	GI50 (HL-60(TB) leukemia) [µM]
Cc1cc(N2CCC(N3CCCC3)CC2)nc(/N=C(\N)Nc2ccc(Cl)c(Cl)c2)n1	1.84	3.55 µM	2	3.82 µM	1.85	3.87 µM	1.71	3.22 µM	2.65	8.26	2.14 µM	5.11 µM	1.54	3.17 µM	1.52 µM	3.32	1.91	3.41 µM	–	–
Cc1cc(C)c2nc3c(c(C(O)C4CCCCN4)c2c1)CC/C3=C\c1ccc(Cl)cc1 (stereo unspecified)	–	> 100 µM	–	> 100 µM	–	> 100 µM	–	> 100 µM	–	> 100	–	> 100 µM	–	–	–	> 100	–	> 100 µM	67.6	–
CC1NOC(=O)C1N=Nc1cccc(Cl)c1 (stereo unspecified)	–	> 100 µM	–	> 100 µM	–	77 µM	–	> 100 µM	–	–	–	> 100 µM	–	> 100 µM	–	62.8	–	> 100 µM	56.8	–
NC(=NCCCCCCN=C(N)/N=C(\N)Nc1ccc(Cl)cc1)/N=C(\N)Nc1ccc(Cl)cc1	0.966	2.35 µM	1.1	3.28 µM	1.62	5.18 µM	2.18	8.36 µM	1.74	6.38	1.28 µM	3.16 µM	1.8	6.33 µM	–	–	1.7	6 µM	2.49	1.1
COc1ccc(/C=C/C(=N\NC(=O)c2ccccc2)c2sc(Nc3ccc([N+](=O)[O-])cc3)nc2C)cc1OC	–	26.5 µM	–	43.1 µM	–	> 100 µM	–	41.8 µM	–	–	–	–	–	> 100 µM	–	17.4	–	47.2 µM	–	–
COc1cc(C2CC(c3ccccc3)=NN2C=O)ccc1Oc1ccnc2cc(Cl)ccc12 (stereo unspecified)	5.58	86.2 µM	–	–	> 100	> 100 µM	17.4	> 100 µM	2.8	> 100	35 µM	> 100 µM	> 100	> 100 µM	5.28 µM	> 100	> 100	> 100 µM	–	–
COC(=O)Cc1cc(=O)n2c3ccccc3n(C)c2c1C#N	–	> 100 µM	–	> 100 µM	–	> 100 µM	–	> 100 µM	–	–	–	> 100 µM	–	> 100 µM	–	–	–	> 100 µM	> 100	–
C/C=C/C=C/c1cc2cc3c(c(O)c2c(=O)[nH]1)C1(CC3)C(O)=c2c(=O)c3c(=O)cc(OC)c(=O)c=3c(=O)c2=C1O (stereo unspecified)	–	2.91 µM and 8.02 µM	–	2.19 µM and 12.9 µM	–	1.37 µM and 13.5 µM	–	1.7 µM and 16.5 µM	–	0.654	–	10.6 µM and 15.3 µM	–	1.33 µM and 11.3 µM	–	–	–	4.93 µM and 20.1 µM	3.95	0.669
C=CCNC(=S)NNC(=O)c1c(C)nc2sccn12	–	> 100 µM	–	> 100 µM	–	> 100 µM	–	> 100 µM	–	–	–	> 100 µM	–	> 100 µM	–	> 100	–	> 100 µM	> 100	–
CC(=O)CCC1(c2ccccc2)OC(=O)C(C#N)=C1c1ccccc1 (stereo unspecified)	–	> 100 µM	–	> 100 µM	–	> 100 µM	–	> 100 µM	–	–	–	> 100 µM	–	> 100 µM	–	4.53	–	> 100 µM	–	–
Cc1cc(Cl)ccc1N=C1NC(=O)C(CC(=O)Nc2cccc(Cl)c2)S1 (stereo unspecified)	–	> 100 µM	–	> 100 µM	–	> 100 µM	–	> 100 µM	–	–	–	> 100 µM	–	> 100 µM	–	> 100	–	> 100 µM	> 100	–
COC(=O)c1c(C)nc(C)c2c1C(=O)C(Br)=C(NCc1ccccc1)C2=O	3.04	10.4 µM	1.47	2.85 µM	2.97	7.96 µM	3.08	9.97 µM	2.73	10.9	2.05 µM	5.45 µM	3.4	10.5 µM	2.25 µM	6.09	5.79	17.5 µM	–	–
C[N+](C)(C)CC1CCC(C[N+](C)(C)C)C1=NO (stereo unspecified)	–	> 100 µM	–	> 100 µM	–	> 100 µM	–	> 100 µM	–	–	–	> 100 µM	–	–	–	> 100	–	> 100 µM	> 100	–
Cc1c(Cl)ccc2c1NC(=O)C2(O)CC(=O)c1ccc(Cl)cc1 (stereo unspecified)	–	> 58.3 µM	–	> 54.4 µM	–	> 66.1 µM	–	> 100 µM	–	–	–	> 100 µM	–	> 56.2 µM	–	> 100	–	> 100 µM	> 80.6	–
COc1cc(C(=O)c2cnc(-c3c[nH]c4cccc(C)c34)[nH]2)cc(OC)c1OC	–	52.9 µM	11.4	> 100 µM	0.00643	–	0.00846	26.7 µM	0.00537	> 100	0.00842 µM and 0.0168 µM	> 100 µM	0.0183	29.4 µM	–	0.0224	0.99	97.4 µM	–	–
Clc1ccc(C=Nc2ccc(-c3nc4ccccc4[nH]3)cc2)cc1	> 100	> 100 µM	> 100	> 100 µM	> 100	> 100 µM	> 100	> 100 µM	> 100	> 100	> 100 µM	> 100 µM	> 100	> 100 µM	> 100 µM	> 100	> 100	> 100 µM	–	–
N#C/C(=C\c1ccc(O)cc1)C(N)=O	–	> 100 µM	–	> 100 µM	–	> 100 µM	–	> 100 µM	–	–	–	> 100 µM	–	> 100 µM	97.5 µM and 44 µM	> 100	–	> 100 µM	> 100	–
CCOc1ccc(NC(=O)CC2SC(=Nc3ccc(C)cc3)NC2=O)cc1 (stereo unspecified)	–	> 100 µM	–	> 100 µM	–	> 100 µM	–	> 100 µM	–	–	–	> 100 µM	–	–	–	> 100	–	> 100 µM	–	–
